Experimental findings from patent publication US20230381503A1, “Compositions And Methods For Treating With A Combination Of Alternating Electric Fields And Ion Channel Inhibitors” (NOVOCURE GMBH, priority 2022, published 2023) are described below.

In one test the test system is GCE62, SF188 and KNS42. Briefly: Cell proliferation of three cell lines treated with TTFields and IAA94. The format is cell-based, human. Particulars: TTFields and IAA94 compared to TTFields alone, FIG. 6.
Test [1] deals with human glioblastoma primary culture. Briefly: Cell number after TTFields plus CLIC1 inhibitor IAA94. The format is cell-based. To be noted: TTFields plus IAA94 vs TTFields alone or IAA94 alone, FIG. 12. An excerpt: Thus, the combination therapy is a very effective treatment.
Test [2] concerns pGBM cell lines (SF188 and KNS42). Briefly: Cell count of pGBM cell lines with and without IAA94. Format: cell-based, human. Particulars: 100 uM IAA94, FIG. 3. An excerpt: (§1) The cell count in different cell lines (SF188 and KNS42) with and without IAA94.
(§2) Similar efficacy was observed when using TTFields as a treatment for pGBM (FIG. 4).

The next test concerns pGBM. Briefly: Invasion / migration capacity of pGBM with IAA94. The format is cell-based, human. Particulars: FIG. 3.
Text: as §1, §2

`CC1(C2CCCC2)Cc2cc(OCC(=O)O)c(Cl)c(Cl)c2C1=O` (centres unmarked) [IAA94]: the “cell proliferation, combination with TTFields” value in the test on GCE62, SF188 and KNS42 is “significantly reduced cell proliferation compared to TTFields alone”. Further, the “cell number, combination with TTFields” value in test [1] is recorded as “inhibits cell proliferation and/or kills more cells that TTFields alone or IAA94 alone”. The overall cell count result in test [2] is recorded as “reduces overall cell count”. Moreover, the invasive capacity entry with pGBM (100 uM IAA94, pGBM) is “reduces invasive capacity”. Moreover, the “capacity of pGBM to proliferate, invade and migrate” value in the test on pGBM (inhibition of CLIC1 and CLIC4 by IAA94) was “reduced the capacity of pGBM to proliferate, invade and migrate”.
